# Source: US20120041062A1, “COMPOUND OF SALVIANOLIC ACID L, PREPARATION METHOD AND USE THEREOF” (Tianjin Tasly Pharmaceutical Co., Ltd., priority 2009, published 2012)
# Key:
# [1] = Determination of reducing capacity (potassium ferricyanide / ferric chloride, absorbance at 700 nm); type: biochemical; settings: FIG. 10; in words, compared with vitamin C
# Description: 0.5 ml of 200 mM phosphate buffer (pH6.8) containing different concentrations of the salvianolic acid L and 1.0% potassium ferricyanide solution were sucked respectively and cooled on an ice bath after being heated on a water bath (50° C.) for 20 min. 0.5 ml of trichloroacetic acid solution (10%) was added and centrifuged at […] for 10 min. 1.0 ml of the resulting supernatant was taken, into which 1.0 ml of distilled water and 0.2 ml of ferric chloride solution (0.1%) were added, stood still for 10 min and the absorbance was measured at 700 nm. Meanwhile, the blank experiment was carried out. Vitamin C is a strongly reducing substance, acting as positive control in this study. Reducing capacity of the sample is represented by subtracting the absorbance of the blank control from the absorbance of the tested sample. Thus, it means the higher absorbance, the stronger reducing capacity.
# H2O2-damaged PC12 cell [2] = assay: LDH activity of H2O2-damaged PC12 cell; type: cell-based; settings: pre-treated 6 hours, 0.5 mM H2O2 1 hour, supernatant
# Description: (§1) The experiment of determination was carried out according to the Specification of LDH test kit provided by Nanjing Jiangcheng Bioengineering Institute.
# (§2) LDH activity (U/L)=(ODU−ODC)/(ODS−ODB)×CS×N×1 000
# (§3) Wherein, ODU represented the absorbance of the tested sample, ODC represented the absorbance of control sample, ODB represented the absorbance of blank, ODS represented the absorbance of standard solution, CS represented the standard concentration of 2 mmol/L, N represented the dilution multiple of sample before determination.
# (§4) a. PC12 cells at exponential growth phase in good condition were washed with PBS twice, followed by addition of 0.25% trypsin digestive solution to perform digestion at 37° C. for about 1 min. This reaction was ended by addition of blood serum-contained culture medium, centrifuged and resuspended, then counted the cells to prepare a suspension with a cell density of 2×10^4−4×10^4 cells/ml.
# (§5) b. The resulting cell suspension was inoculated into 96-well microplate with 180 μl in each well (n=3) and incubated in constant temperature CO2 incubator at 37° C. for 24 hours.
# (§6) c. Grouping and treatments: there were 5 groups: blank control group (PBS), solvent control group (DMSO or ethyl acetate), model group (H2O2), positive control group (Edaravone) and drug treatment group.
# (§7) Model group: 0.5 mM hydrogen peroxide (H2O2) was used to treat for 1 hour.
# (§8) Positive control group: Edaravone (2 μg/ml ), used as a positive drug, was added to cell and pre-treated for 6 hours, into which 0.5 mM hydrogen peroxide was added to damage for 1 hour and replaced with freshly-prepared DMEM+10%FBS culture medium.
# (§9) Drug treatment group: after the cell was inoculated into culture microplate, different tested drugs at different concentration were added firstly and pre-treated for 6 hours with 20 μl per well, into which 0.5 mM H2O2 was added to damage for 1 hour, and then replaced with freshly-prepared DMEM+10%FBS culture medium.
# d. The supernatant was collected, 20 μl per well, for determination of LDH activity.
# H2O2-damaged PC12 cell [3] = assay: Cell survival rate of H2O2-damaged PC12 cell (MTT method); type: cell-based; settings: pre-treated 6 hours, 0.5 mM H2O2 1 hour
# Description: (§10) a. MTT was added into 96-well microplate with 20 μl in each well, and reacted for 4 hours in incubator.
# (§11) b. The supernatant was discarded, followed by addition of 150 μl DMSO in each well and shaken on flat shaking-table for 10 min.
# (§12) c. Absorbance of each well was measured by ELISA reader at wavelength of 570 nm to calculate cell survival rate.
# (§13) Cell survival rate %=(OD value of drug administration group/OD value of negative control group)×100%
# a. PC12 cells at, exponential growth phase in good condition were washed with PBS twice, followed by addition of 0.25% trypsin digestive solution to perform digestion at 37° C. for about 1 min. This reaction was ended by addition of blood serum-contained culture medium, centrifuged and resuspended, then counted the cells to prepare a suspension with a cell density of 2×10^4−4×10^4 cells/ml.
# as §5
# c. Grouping and treatments: there were 4 groups: blank control group (PBS), solvent control group (DMSO), model group (H2O2) and positive control group (Edaravone).
# Positive control group: Edaravone (2 μg/ml) is added as a positive drug and then pre-treated for 6 hours, into which 0.5 mM hydrogen peroxide was added to damage for 1 hour and replaced with freshly-prepared DMEM+10%FBS culture medium, 200 μl per well.
# (§14) d. The cell activity was determined by MTT method.
# as §4, §6, §7, §8, §9
# e. The activity of cell in cell microplate was determined by MTT method.
# [4] = DPPH free-radical scavenging reaction; type: biochemical; settings: for DPPH free-radical scavenging rate: 20 min, 25° C., 517 nm
# Description: In this study, 1,1-diphenyl-2-picryl-hydrazyl (DPPH) free-radical scavenging reaction model has been used to observe the free-radical scavenging activity of the salvianolic acid L. The total reaction volume was 2 ml. 1 ml of the sample solutions at different concentrations in 80% methanol (v/v) were added into 100 μM of DPPH methanol solution, mixed uniformly to allow the solution to react for 20 min at 25° C. in the dark. Absorbance of the reaction solution was measured at 517 nm. In this study, vitamin C was regarded as a positive control. Free-radical scavenging rate was calculated in accordance with the following equation: Free-radical scavenging rate (%)=[1−Asample/Acontrol)/Acontrol]×100% Wherein, the Asample means the absorbance of the tested samples, and Acontrol means the absorbance of blank control.
# [5] = test system: PC12 cell of oxygen-glucose deprivation (OGD); assay: LDH activity of PC12 cell of oxygen-glucose deprivation (OGD); type: cell-based; settings: pre-treated 6 hours, OGD 0.5 hour, cultured overnight, supernatant
# Description: as §1, §2, §3, §4, §5
# (§15) c. Grouping and treatments: there were 4 groups: blank control group (normoxia+0.1% DMSO), model group (OGD+DMSO, oxygen-glucose deprivation), positive control group (Edaravone) and the drug treatment group.
# (§16) Model group: the culture medium for the cells in microplate was changed to glucose-free DMEM, placed in a hypoxic chamber, and started to record time for 0.5 hour when O2% was less than 2.6, and then transferred to a routine incubator to culture overnight.
# (§17) Positive control group: Edaravone (2 μg/ml ) was used as a positive drug. Drug was added and pre-treated for 6 hours, and then the culture medium was replaced with glucose-free DMEM medium, 180 μl per well. The drug was added again, placed in a hypoxic chamber, started to record time for 0.5 hour when 02% was less than 2.6, and then transferred to a routine incubator to culture overnight.
# (§18) Drug treatment group: the drug at different concentrations was added and pre-treated for 6 hours, the culture medium was changed to glucose-free DMEM medium, 180 μl per well. The drug was added again, placed in a hypoxic chamber, started to record time for 0.5 hour when O2% was less than 2.6, and then transferred to a routine incubator to culture overnight.
# d. Resulting supernatant was collected the next day with 20 μl per well, which was used for determination of LDH activity.
# [6] = test system: PC12 cell of oxygen-glucose deprivation; assay: Cell survival rate of PC12 cell of oxygen-glucose deprivation (MTT method); type: cell-based; settings: pre-treated 6 hours
# Description: as §10, §11, §12, §13, §4, §5
# c. Grouping and treatments: there were 3 groups: blank control group (normoxia+0.1% DMS0), model group (OGD+0.1% DMSO, oxygen-glucose deprivation) and positive control group (Edaravone).
# Model group: the cell in culture microplate was cultured with glucose-free DMEM medium, which was placed in a hypoxic chamber, started to record time for 0.5 hour when O2% was less than 2.6, and then transferred to a routine incubator. The determination was carried out after a period of time of incubation.
# Positive control group: Edaravone (2 μg/ml) was used as a positive drug. Drug was added and pre-treated for 6 hours, and then replaced with glucose-free medium, 180 μl per well. The drug was added again, placed in a hypoxic chamber, started to record time for 0.5 hour when O2% was less than 2.6, and then transferred to a routine incubator. The determination was carried out after a period of time of incubation.
# as §14, §15, §16, §17, §18
# e. The activity of cell was determined by MTT method.
# [7] = final concentration 0.02 μg/ml, OGD 0.5 hour, cultured overnight
# [8] = final concentration 0.2 μg/ml, OGD 0.5 hour, cultured overnight
# [9] = final concentration 2 μg/ml, OGD 0.5 hour, cultured overnight
SMILES,LDH activity (U/L) (H2O2-damaged PC12 cell [2]; final concentration 0.02 μg/ml),LDH activity (U/L) (H2O2-damaged PC12 cell [2]; final concentration 0.2 μg/ml),LDH activity (U/L) (H2O2-damaged PC12 cell [2]; final concentration 2 μg/ml),Survival rate (%) (H2O2-damaged PC12 cell [3]; final concentration 0.02 μg/ml),Survival rate (%) (H2O2-damaged PC12 cell [3]; final concentration 0.2 μg/ml),Survival rate (%) (H2O2-damaged PC12 cell [3]; final concentration 2 μg/ml),DPPH free-radical scavenging rate ([4]; sample 0.314 μg/ml) [%],DPPH free-radical scavenging rate ([4]; sample 0.625 μg/ml) [%],DPPH free-radical scavenging rate ([4]; sample 1.25 μg/ml) [%],DPPH free-radical scavenging rate ([4]; sample 2.5 μg/ml) [%],DPPH free-radical scavenging rate ([4]; sample 5 μg/ml) [%],LDH activity (U/L) ([5]; final concentration 0.02 μg/ml),LDH activity (U/L) ([5]; final concentration 0.2 μg/ml),LDH activity (U/L) ([5]; final concentration 2 μg/ml),"Survival rate (%) [6, 7] [%]","Survival rate (%) [6, 8] [%]","Survival rate (%) [6, 9] [%]",further results
O=C(/C=C/c1ccc(O)c(O)c1/C(=C/c1ccc(O)c(O)c1)C(=O)O)OC(Cc1ccc(O)c(O)c1)C(=O)O (centres unmarked) [salvianolic acid L],550.336 ± 25.83,474.27 ± 71.96,487.70 ± 72.51,47.2 ± 0.8,44.89 ± 0.48,48.34 ± 0.25,5.41 ± 0.74,12.95 ± 2.42,25.21 ± 1.82,44.19 ± 3.70,83.17 ± 4.12,53.69 ± 29.23,31.32 ± 11.55,40.27 ± 5.17,47.74 ± 1.72,36.68 ± 2.72,35.96 ± 1.44,"reducing capacity (absorbance at 700 nm minus blank) [1]: much stronger than that of vitamin C; DPPH free-radical scavenging rate (in words) ([4]; compared with vitamin C, Table 3 and FIG. 9): much higher free-radical scavenging rate than that of the vitamin C"
CC1=NN(c2ccccc2)C(=O)C1 [Edaravone],532.44 ± 11.55,568.23 ± 11.55,523.49 ± 5.17,47.6 ± 2,44.2 ± 6.11,58.18 ± 2.64,,,,,,40.27 ± 5.17,22.37 ± 5.17,31.32 ± 5.17,44.75 ± 1.02,36.37 ± 2.52,39.99 ± 0.55,"Survival rate (%) (H2O2-damaged PC12 cell [3]; establishment of hydrogen peroxide-damaged model, 2 μg/ml): 53.54 ± 3.66 %; Survival rate (%) ([6]; establishment of oxygen-glucose deprivation model, 2 μg/ml): 48.50 ± 1.81 %"
O=C1O[C@H]([C@@H](O)CO)C(O)=C1O [Vitamin C],,,,,,,3.42 ± 0.42,7.06 ± 1.88,13.82 ± 1.83,29.39 ± 5.92,55.34 ± 7.21,,,,,,,
